We go through 10 molecules from patent US20230019491A1, “PYRIMIDINE TBK/IKKe INHIBITOR COMPOUNDS AND USES THEREOF” (Merck Patent GmbH, priority 2017, published 2023).

Each structure is given as a SMILES string.

Assay [1] has as its target T1, TBK1 (Homo sapiens, UniProt Q9UHD2).
T1 sequence (Q9UHD2 1-729): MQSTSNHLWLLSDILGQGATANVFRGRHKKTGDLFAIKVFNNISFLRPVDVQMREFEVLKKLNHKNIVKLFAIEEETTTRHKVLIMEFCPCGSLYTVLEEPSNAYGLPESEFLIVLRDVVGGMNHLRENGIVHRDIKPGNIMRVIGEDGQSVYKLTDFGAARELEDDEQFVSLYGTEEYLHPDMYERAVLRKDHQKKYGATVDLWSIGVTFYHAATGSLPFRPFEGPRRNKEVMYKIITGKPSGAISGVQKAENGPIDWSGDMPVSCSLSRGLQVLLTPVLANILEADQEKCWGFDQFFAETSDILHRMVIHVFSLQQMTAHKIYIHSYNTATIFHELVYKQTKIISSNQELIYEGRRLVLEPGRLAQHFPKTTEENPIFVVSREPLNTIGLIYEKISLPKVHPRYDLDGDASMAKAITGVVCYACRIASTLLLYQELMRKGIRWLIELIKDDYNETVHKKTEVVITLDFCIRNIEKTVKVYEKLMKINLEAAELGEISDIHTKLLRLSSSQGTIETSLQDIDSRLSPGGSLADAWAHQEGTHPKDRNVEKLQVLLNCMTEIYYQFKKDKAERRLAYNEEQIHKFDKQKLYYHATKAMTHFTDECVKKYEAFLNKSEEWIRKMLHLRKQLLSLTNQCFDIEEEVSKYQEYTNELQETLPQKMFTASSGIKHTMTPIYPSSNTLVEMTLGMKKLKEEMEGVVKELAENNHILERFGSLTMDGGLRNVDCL
Description: TBK biochemical assay. The following applies: 10 point 1:4 dose response, 30 uM top concentration, 90 min at 25° C., LabChip EZ Reader II; read-out: TBK1_IC50. The essentials:
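Read-out was a Caliper LabChip mobility-shift assay, run after a 90-min, 25 °C reaction of TBK1 with substrate and compounds, quenched with stop buffer. Control wells received staurosporine at 10 uM final.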

Assay [2] has as its target T2, IKKε (Homo sapiens, UniProt Q14164).
T2 sequence (Q14164 1-716): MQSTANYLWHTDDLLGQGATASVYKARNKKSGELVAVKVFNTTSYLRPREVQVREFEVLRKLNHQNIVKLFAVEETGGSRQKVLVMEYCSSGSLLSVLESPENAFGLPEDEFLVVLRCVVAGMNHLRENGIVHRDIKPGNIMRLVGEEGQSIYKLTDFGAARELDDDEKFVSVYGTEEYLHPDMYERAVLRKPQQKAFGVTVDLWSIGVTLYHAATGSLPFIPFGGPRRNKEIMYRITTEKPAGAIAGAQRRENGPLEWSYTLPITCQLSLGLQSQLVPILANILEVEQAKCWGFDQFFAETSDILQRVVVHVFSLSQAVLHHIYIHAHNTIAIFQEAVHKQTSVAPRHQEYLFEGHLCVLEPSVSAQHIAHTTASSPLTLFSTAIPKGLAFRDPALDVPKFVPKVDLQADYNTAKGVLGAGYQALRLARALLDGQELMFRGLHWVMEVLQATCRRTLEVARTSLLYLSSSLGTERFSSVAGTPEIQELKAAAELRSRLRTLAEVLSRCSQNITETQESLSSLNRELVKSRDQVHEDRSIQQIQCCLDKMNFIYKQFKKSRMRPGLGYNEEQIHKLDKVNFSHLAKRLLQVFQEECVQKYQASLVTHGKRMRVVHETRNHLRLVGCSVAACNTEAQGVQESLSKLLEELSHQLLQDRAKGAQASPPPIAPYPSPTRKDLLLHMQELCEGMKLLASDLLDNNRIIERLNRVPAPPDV
Kind of assay: IKKε biochemical assay. The following applies: 10 point 1:4 dose response, 30 uM top concentration, 90 min at 25° C., LabChip EZ Reader II; read-out: IKKε_IC50. Summed up:
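Mobility-shift LabChip read-out followed a 90 min, 25° C. reaction of IKKε with substrate and test compound, with DMSO held at 1% final. Reactions were ended with stop buffer. Wells with 10 uM final staurosporine defined complete inhibition, and DMSO-only wells the uninhibited level.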

On to `COc1nc(Nc2nccc(-c3ccc(OC4CCOCC4)c(C#N)c3)n2)ccc1N1CCN(C(C)=O)CC1` [Example 168, 5-(2-[[5-(4-acetylpiperazin-1-yl)-6-methoxypyridin-2-yl]amino]pyrimidin-4-yl)-2-(oxan-4-yloxy)benzonitrile], for which the IC50 in assay [1] and in assay [2] was less than 100 nM each time.
As for `COc1nc(Nc2ncc(C)c(-c3ccc(O[C@H]4CCN(C(=O)[C@H](C)O)CC4(F)F)c(C#N)c3)n2)ccc1N1CCN(C2COC2)CC1` [Example 284, 2-[[(4S)-3,3-difluoro-1-[(2S)-2-hydroxypropanoyl]piperidin-4-yl]oxy]-5-[2-([6-methoxy-5-[4-(oxetan-3-yl)piperazin-1-yl]pyridin-2-yl]amino)-5-methylpyrimidin-4-yl]benzonitrile], the IC50 in assay [1] and in assay [2] was less than 100 nM each time.
In the case of `COc1nc(Nc2nccc(-c3ccc(OC4CCNCC4(F)F)c(C#N)c3)n2)ccc1N1CCN(C2COC2)[C@H](C)C1` (stereo partly drawn) [Example 124, 2-(3,3-Difluoro-piperidin-4-yloxy)-5-{2-[6-methoxy-5-((R)-3-methyl-4-oxetan-3-yl-piperazin-1-yl)-pyridin-2-ylamino]-pyrimidin-4-yl}-benzonitrile], the IC50 in assay [1] and in assay [2] was less than 100 nM in each case.
`COc1nc(Nc2ncc(F)c(-c3ccc(OC4CCN(C(=O)[C@H](C)O)CC4(F)F)c(C#N)c3)n2)ccc1N1CCN(C2COC2)CC1` (stereo partly drawn) [Example 292, 2-({3,3-difluoro-1-[(2S)-2-hydroxypropanoyl]piperidin-4-yl}oxy)-5-[5-fluoro-2-({6-methoxy-5-[4-(oxetan-3-yl)piperazin-1-yl]pyridin-2-yl}amino)pyrimidin-4-yl]benzonitrile]: the IC50 in assay [1] and in assay [2] was less than 100 nM in each case.
Take `COc1nc(Nc2nccc(-c3ccc(OC4CCN(C(=O)[C@@H](O)CO)CC4(F)F)c(C#N)c3)n2)ccc1N1CCN(C2COC2)C[C@H]1C` (stereo partly drawn) [Example 133, 2-[1-((S)-2,3-Dihydroxy-propionyl)-3,3-difluoro-piperidin-4-yloxy]-5-{2-[6-methoxy-5-((R)-2-methyl-4-oxetan-3-yl-piperazin-1-yl)-pyridin-2-ylamino]-pyrimidin-4-yl}-benzonitrile]: the IC50 in assay [1] and in assay [2] was less than 100 nM in each case.
In the case of `COc1nc(Nc2nccc(-c3ccc(OC4(C)CCNCC4(F)F)c(C#N)c3)n2)ccc1N1CCN(C2COC2)CC1` (centres unmarked) [Example 263, 2-(3,3-Difluoro-4-methyl-piperidin-4-yloxy)-5-{2-[6-methoxy-5-(4-oxetan-3-yl-piperazin-1-yl)-pyridin-2-ylamino]-pyrimidin-4-yl}-benzonitrile], the IC50 in assay [1] and in assay [2] was less than 100 nM each time.
As for `COc1nc(Nc2nccc(-c3ccc(OC4CCN(C(=O)[C@H](C)CO)CC4(F)F)c(C#N)c3)n2)ccc1N1CCN(C2COC2)CC1` (stereo partly drawn) [Example 257, 2-[3,3-Difluoro-1-((R)-3-hydroxy-2-methyl-propionyl)-piperidin-4-yloxy]-5-{2-[6-methoxy-5-(4-oxetan-3-yl-piperazin-1-yl)-pyridin-2-ylamino]-pyrimidin-4-yl}-benzonitrile], the IC50 in assay [1] and in assay [2] was less than 100 nM in each case.
In the case of `COc1nc(Nc2nccc(-c3ccc(OC4CCNCC4(F)F)c(C#N)c3)n2)ccc1N1CCN(C)C[C@@H]1C` (stereo partly drawn) [Example 109, 2-(3,3-Difluoro-piperidin-4-yloxy)-5-{2-[5-((S)-2,4-dimethyl-piperazin-1-yl)-6-methoxy-pyridin-2-ylamino]-pyrimidin-4-yl}-benzonitrile], the IC50 in assay [1] and in assay [2] was less than 100 nM in each case.
As to `Cc1nc(C(=O)N2CCC(Oc3ccc(-c4ccnc(Nc5ccc(N6CCN(C7COC7)CC6)cc5)n4)cc3C#N)CC2)c[nH]1` [Example 274, 2-[[1-(2-methyl-1H-imidazole-4-carbonyl)piperidin-4-yl]oxy]-5-[2-([4-[4-(oxetan-3-yl)piperazin-1-yl]phenyl]amino)pyrimidin-4-yl]benzonitrile], the IC50 in assay [1] and in assay [2] was less than 100 nM throughout.
In the case of `COc1nc(Nc2nccc(-c3ccc(OC4CCN(C(=O)[C@@H](O)CO)CC4C)c(C#N)c3)n2)ccc1N1CCN(C2COC2)CC1` (stereo partly drawn) [Example 272, 2-[1-((S)-2,3-Dihydroxy-propionyl)-3-methyl-piperidin-4-yloxy]-5-{2-[6-methoxy-5-(4-oxetan-3-yl-piperazin-1-yl)-pyridin-2-ylamino]-pyrimidin-4-yl}-benzonitrile], the IC50 in assay [1] and in assay [2] was less than 100 nM in each case.
